Assay results published in ChEMBL document CHEMBL1201862, “PubChem BioAssay data set” (2004).
Calls of active or inactive are those of the source. For most assays here, no stated cut-off is given here; in the data, actives have a measured IC50 and inactives only a lower limit.

Assays:
[1] = biological target: T1, Sentrin-specific protease 8 (Homo sapiens, UniProt Q96LD8); assay type: functional;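 further: luminescence read-out of SENP8 inhibition, dose-response confirmation following an ultra-high-throughput screen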
T1 sequence (Q96LD8 whole entry): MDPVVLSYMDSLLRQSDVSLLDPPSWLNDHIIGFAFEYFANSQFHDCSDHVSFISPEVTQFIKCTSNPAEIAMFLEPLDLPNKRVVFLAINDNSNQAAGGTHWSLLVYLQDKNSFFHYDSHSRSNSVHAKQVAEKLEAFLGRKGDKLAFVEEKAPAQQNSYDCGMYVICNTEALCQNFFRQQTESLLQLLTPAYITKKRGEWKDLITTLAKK

[2] = biological target: T2, Sentrin-specific protease 6 (Homo sapiens, UniProt Q9GZR1); assay type: functional;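 further: Luminescence-based dose-response confirmatory assay of SENP6 inhibition, following up an ultra-high-throughput screen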
T2 sequence (Q9GZR1 whole entry): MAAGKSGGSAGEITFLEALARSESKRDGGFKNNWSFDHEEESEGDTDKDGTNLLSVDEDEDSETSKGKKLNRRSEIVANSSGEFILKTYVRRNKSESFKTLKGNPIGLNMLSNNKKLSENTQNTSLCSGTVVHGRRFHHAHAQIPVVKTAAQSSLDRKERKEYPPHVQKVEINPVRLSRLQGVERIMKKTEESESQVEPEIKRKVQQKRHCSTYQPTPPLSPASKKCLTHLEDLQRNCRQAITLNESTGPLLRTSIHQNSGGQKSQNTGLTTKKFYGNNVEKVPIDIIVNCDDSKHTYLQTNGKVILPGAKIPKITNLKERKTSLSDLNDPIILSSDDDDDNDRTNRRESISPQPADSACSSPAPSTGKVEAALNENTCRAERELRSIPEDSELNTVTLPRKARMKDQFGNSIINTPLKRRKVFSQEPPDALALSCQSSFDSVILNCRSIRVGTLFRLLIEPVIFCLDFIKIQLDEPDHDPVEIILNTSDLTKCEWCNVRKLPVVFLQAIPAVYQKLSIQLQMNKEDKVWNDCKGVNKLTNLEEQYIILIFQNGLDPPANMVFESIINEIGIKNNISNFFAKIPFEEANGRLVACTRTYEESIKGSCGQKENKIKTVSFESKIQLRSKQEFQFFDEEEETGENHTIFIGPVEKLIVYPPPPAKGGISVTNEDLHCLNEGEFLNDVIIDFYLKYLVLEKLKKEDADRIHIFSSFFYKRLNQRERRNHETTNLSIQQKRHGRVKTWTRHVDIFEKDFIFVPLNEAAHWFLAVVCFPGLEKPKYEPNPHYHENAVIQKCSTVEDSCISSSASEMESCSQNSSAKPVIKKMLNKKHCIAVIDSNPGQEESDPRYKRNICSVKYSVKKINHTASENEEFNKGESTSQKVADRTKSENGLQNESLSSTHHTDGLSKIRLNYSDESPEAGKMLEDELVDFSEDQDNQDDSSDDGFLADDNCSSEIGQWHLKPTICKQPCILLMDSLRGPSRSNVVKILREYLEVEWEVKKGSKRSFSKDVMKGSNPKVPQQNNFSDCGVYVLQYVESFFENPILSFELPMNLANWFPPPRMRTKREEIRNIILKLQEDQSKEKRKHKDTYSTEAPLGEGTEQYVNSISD

Caspase-3 = biological target: T3, Caspase-3 (Homo sapiens, UniProt P42574); assay type: functional;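 further: Dose-response selectivity test against caspase-3 for candidate inhibitors of sentrin-specific proteases (SENPs)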
T3 sequence (P42574 whole entry): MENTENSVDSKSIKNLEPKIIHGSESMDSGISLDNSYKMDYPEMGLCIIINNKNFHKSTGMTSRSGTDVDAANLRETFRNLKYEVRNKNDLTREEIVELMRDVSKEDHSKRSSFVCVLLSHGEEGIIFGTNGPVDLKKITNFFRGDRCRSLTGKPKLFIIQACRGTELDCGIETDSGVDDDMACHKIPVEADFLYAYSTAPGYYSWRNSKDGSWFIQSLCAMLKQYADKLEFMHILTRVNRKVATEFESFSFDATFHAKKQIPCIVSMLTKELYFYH

[3] = biological target: Heat shock protein HSP 90-alpha (Homo sapiens, UniProt P07900); assay type: functional, organism-based
[4] = biological target: T4, 1-phosphatidylinositol 4,5-bisphosphate phosphodiesterase gamma-1 (Homo sapiens, UniProt P19174); experiment: Counterscreen for inhibitors of phospholipase C isozymes (PLC-B3): Fluorescence-based biochemical high throughput dose response assay to identify inhibitors of phospholipase C isozymes (PLC-gamma1).
T4 sequence (P19174 whole entry): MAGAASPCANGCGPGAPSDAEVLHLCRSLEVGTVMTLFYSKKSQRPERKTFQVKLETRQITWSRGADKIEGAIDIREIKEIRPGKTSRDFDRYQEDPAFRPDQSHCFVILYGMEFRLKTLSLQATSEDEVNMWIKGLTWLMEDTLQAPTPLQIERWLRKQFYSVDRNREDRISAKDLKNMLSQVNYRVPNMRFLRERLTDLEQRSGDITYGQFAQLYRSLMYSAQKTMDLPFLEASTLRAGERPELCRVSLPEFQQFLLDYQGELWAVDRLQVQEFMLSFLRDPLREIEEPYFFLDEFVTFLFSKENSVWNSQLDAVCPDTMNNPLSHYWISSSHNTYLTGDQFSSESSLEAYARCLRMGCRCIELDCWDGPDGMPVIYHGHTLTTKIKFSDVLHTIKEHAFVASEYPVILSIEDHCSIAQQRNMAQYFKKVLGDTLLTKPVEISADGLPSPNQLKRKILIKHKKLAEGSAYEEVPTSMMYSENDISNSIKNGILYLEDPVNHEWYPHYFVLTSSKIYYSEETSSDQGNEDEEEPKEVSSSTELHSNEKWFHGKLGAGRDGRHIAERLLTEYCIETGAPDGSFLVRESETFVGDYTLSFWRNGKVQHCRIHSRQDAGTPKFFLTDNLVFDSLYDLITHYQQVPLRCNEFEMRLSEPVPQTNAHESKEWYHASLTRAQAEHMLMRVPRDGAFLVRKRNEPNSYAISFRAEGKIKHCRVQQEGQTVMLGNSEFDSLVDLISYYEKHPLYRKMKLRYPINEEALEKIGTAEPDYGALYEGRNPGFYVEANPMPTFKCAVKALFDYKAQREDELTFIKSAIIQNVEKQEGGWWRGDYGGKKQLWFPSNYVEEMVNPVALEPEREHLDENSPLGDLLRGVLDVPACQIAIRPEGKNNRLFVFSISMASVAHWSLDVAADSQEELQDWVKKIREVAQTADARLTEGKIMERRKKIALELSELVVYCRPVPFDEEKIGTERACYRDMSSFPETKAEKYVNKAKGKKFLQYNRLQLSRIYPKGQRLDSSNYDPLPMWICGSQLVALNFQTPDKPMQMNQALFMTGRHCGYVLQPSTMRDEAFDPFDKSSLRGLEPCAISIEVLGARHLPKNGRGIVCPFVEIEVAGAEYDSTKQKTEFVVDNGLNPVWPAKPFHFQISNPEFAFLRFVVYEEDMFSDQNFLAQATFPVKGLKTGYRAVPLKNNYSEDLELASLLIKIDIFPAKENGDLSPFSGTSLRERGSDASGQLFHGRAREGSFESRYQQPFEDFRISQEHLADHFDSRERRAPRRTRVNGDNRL

Row | Structure (SMILES) | IC50 [1] | IC50 [2] | IC50 (Caspase-3) | AC50 [3] | IC50 [4]
1 | CN(C)S(=O)(=O)Oc1cccc(C(=O)Nc2ccc(Cl)c(Cl)c2)c1 | 19.6 µM (active) | 13.6 µM (active) | 52.2 µM (active) |  | 
2 | Cc1ccc2[nH]c(/C(C#N)=C/c3ccc(O)c(O)c3)nc2c1 | 24.3 µM (active) | 27.9 µM (active) | 28.1 µM (active) |  | 
3 | COC(=O)C1CN(C#N)N(c2ccc(Cl)cc2)C12c1ccccc1-c1ccccc12 (stereo not given) |  |  |  | 2.75 µM (active) | 
4 | O=C(NN1C(=O)CSC1=S)C(=O)NN1C(=O)CSC1=S |  |  |  |  | 4.36 µM (active)
5 | O=C1NC(=S)S/C1=C\C=C\c1ccc([N+](=O)[O-])o1 |  |  |  | 1.73 µM (active) | > 122 µM (inactive)
